Experimental findings from PubChem BioAssay (NCI) are described below.

Some test systems named below: MDA-MB-468 breast; NCI-H226 lung; BT-549 breast; EKVX NSCLC; SK-MEL-28 melanoma; CCRF-CEM leukemia; T-47D breast; OVCAR-5 ovarian; 786-0 renal; SF-268 CNS; SN12C renal; SR leukemia; UACC-62 melanoma; MOLT-4 leukemia; OVCAR-3 ovarian; CAKI-1 renal; SNB-75 CNS; HS 578T breast; UO-31 renal; PC-3 prostate; SK-OV-3 ovarian; HL-60(TB) leukemia; OVCAR-4 ovarian; DU-145 prostate; TK-10 renal; SNB-19 CNS; HOP-62 NSCLC; HOP-92 NSCLC; A498 renal.

Experiment in all cases: inhibition of tumour cell growth, NCI panel, 48 h

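Growth conditions: 96-well plates. Treatment: test compound, 48 hours, 5 concentrations. Analysis: linear interpolation between bracketing concentrations; unreached endpoints set to highest concentration. At the GI50, growth is halved. Definition used: TGI = concentration required for complete inhibition of growth.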

As for `CCOC(=O)[C@@H](N)CCC(=O)N[C@@H](CSCc1ccccc1)C(=O)N[C@@H](C(=O)OCC)c1ccccc1`, in the assay with MDA-MB-468 breast, the GI50 is 11.9 µM and the TGI worked out at 24.9 µM.

In the case of `c1cc(CNC23CC4CC(CC(C4)C2)C3)cc(C[N+](Cc2cccc(CNC34CC5CC(CC(C5)C3)C4)c2)(Cc2cccc(CNC34CC5CC(CC(C5)C3)C4)c2)Cc2cccc(CNC34CC5CC(CC(C5)C3)C4)c2)c1` (stereo not drawn), in the assay with MDA-MB-468 breast, the GI50 was 3.33 µM and the TGI was found to be 7.03 µM.

On to `COC(=O)[C@@H](C)CNS(=O)(=O)N(c1cc(C(F)(F)F)cc(C(F)(F)F)c1)C1CCN(Cc2ccc(F)cc2)CC1`, for which, in the assay with MDA-MB-468 breast, the GI50 is 3.25 µM and the TGI stood at 15.3 µM.

For `CCCCC(O)(c1ccc(Cl)cc1)C(CN1CCOCC1)c1ccc(Cl)cc1` (stereo not drawn), in the assay on MDA-MB-468 breast, the GI50 is 11.2 µM and the TGI came to 25.9 µM.

In the case of `COc1cc(-c2ccc3c(c2)NC(=O)/C3=C\c2ccc[nH]2)ccc1O`, in the assay on MDA-MB-468 breast, the GI50 was 0.179 µM and the TGI is above 50 µM.

For the compound `CNc1ccc(C(=O)CC(O)CCC(C)C2OC(=O)CC(O)CC(=O)CC(O)CC(O)CC(O)CC(O)CC3(O)CC(O)C(C(=O)OC)C(CC(O[C@@H]4O[C@H](C)[C@@H](O)[C@H](N)[C@@H]4O)/C=C/C=C/C=C/C=C/C=C/C=C/C=C/C2C)O3)cc1` (stereo partly drawn), in the assay with MDA-MB-468 breast, the GI50 is 5.14 µM and the TGI worked out at 25 µM.

As for `CN1CCN(Cc2ccc(NC(=O)c3cncc(C#Cc4cnc5ccc(O[C@@H]6CCOC6)nn45)c3)cc2C(F)(F)F)CC1`, in the assay with MDA-MB-468 breast, the GI50 was 0.209 µM and the TGI amounted to 0.834 µM.

In the case of `O=C(N/N=C/c1ccc(Cl)cc1)c1ccc(C(F)(F)F)nc1Nc1cccc(C(F)(F)F)c1`, in the assay on MDA-MB-468 breast, the GI50 was 1.12 µM and the TGI is 4.28 µM.

Consider `COc1cc2nc3cc([N+](=O)[O-])ccc3c(NCCCNCCO)c2cc1OC`, for which, in the assay on MDA-MB-468 breast, the GI50 was 0.193 µM and the TGI stood at 0.467 µM.

Consider `O=C(NC1=CC(=O)c2ccccc2C1=O)c1ccccc1`, for which, in the assay with MDA-MB-468 breast, the GI50 was 1.08 µM and the TGI came to 2.41 µM.

Consider `CN1CCN(CCCOc2ccc3nc(Nc4ccc(Cl)c(C(F)(F)F)c4)ccc3c2)CC1`, for which, in the assay with MDA-MB-468 breast, the GI50 is 12.2 µM and the TGI turned out to be 26.9 µM.

In the case of `COc1ccc(-c2n[nH]nc2-c2cc(OC)c(OC)c(OC)c2)cc1`, in the assay with MDA-MB-468 breast, the GI50 was below 0.01 µM and the TGI is below 0.01 µM.

As for `COC(=O)[C@H](C)NC(=O)NC(=O)NC(=O)CI`, in the assay on MDA-MB-468 breast, the GI50 was 9.14 µM and the TGI stood at 23.5 µM.

`CC(C)n1nc(-c2cc3cc(O)ccc3[nH]2)c2c(N)ncnc21`: in the assay on MDA-MB-468 breast, the GI50 is 0.163 µM and the TGI turned out to be 1.01 µM.

For the compound `CNCc1cccc2c1OCCCCCC[C@@](C)(O)CC1(CC1)S(=O)(=O)c1ccc(cc1)-c1cnc(N)c(n1)C(=O)N2`, the GI50 was 1.53 µM in the assay with NCI-H226 lung; 0.716 µM with BT-549 breast; 1.42 µM in the assay on EKVX NSCLC; 1.3 µM in the assay on SK-MEL-28 melanoma; 0.0102 µM in the assay on CCRF-CEM leukemia; 3.24 µM in the assay with T-47D breast. Also, the GI50 in the assay on OVCAR-5 ovarian was 2 µM; in the assay on 786-0 renal, 0.0536 µM; in the assay with SF-268 CNS, 1.41 µM; in the assay on SN12C renal it was 1.26 µM; in the assay on UACC-62 melanoma it was 1.6 µM; with MOLT-4 leukemia, 0.0102 µM. The GI50 in the assay on OVCAR-3 ovarian is 1.26 µM; with CAKI-1 renal, 0.365 µM; in the assay on SNB-75 CNS, 0.213 µM; in the assay on HS 578T breast, 0.28 µM; with UO-31 renal, 0.0741 µM; with PC-3 prostate, 0.599 µM. Moreover, the GI50 is 1.54 µM in the assay on SK-OV-3 ovarian; 0.0197 µM with HL-60(TB) leukemia; 2.93 µM in the assay with OVCAR-4 ovarian; 1.03 µM in the assay with DU-145 prostate; 1.55 µM in the assay with TK-10 renal; 1.88 µM in the assay with SNB-19 CNS. For the same compound, the values for the GI50 with HOP-62 NSCLC, in the assay with HOP-92 NSCLC and with A498 renal were 1.98 µM, 1.82 µM and 3.93 µM, respectively. The TGI in the assay on NCI-H226 lung is 4.18 µM; in the assay on BT-549 breast, 14.5 µM; in the assay on EKVX NSCLC, 4.86 µM; in the assay with SK-MEL-28 melanoma it was 2.65 µM; with CCRF-CEM leukemia, 0.634 µM; in the assay with T-47D breast, above 88.8 µM. For the same compound, the TGI was 5.82 µM in the assay with OVCAR-5 ovarian; 14.2 µM in the assay with 786-0 renal; 4.18 µM in the assay with SF-268 CNS; 13.9 µM with SN12C renal; 0.173 µM with SR leukemia; 3.06 µM in the assay with UACC-62 melanoma. The TGI in the assay on MOLT-4 leukemia was determined as 2.19 µM; in the assay with OVCAR-3 ovarian it was 4.73 µM; with CAKI-1 renal it was 5.76 µM; with SNB-75 CNS, 16.3 µM; in the assay on HS 578T breast, 4.3 µM; in the assay on UO-31 renal it was 2.15 µM. The TGI with PC-3 prostate amounted to 3.82 µM; in the assay on SK-OV-3 ovarian it was 19.4 µM; in the assay with HL-60(TB) leukemia it was 0.324 µM; with OVCAR-4 ovarian, 26.3 µM; with DU-145 prostate it was 2.88 µM; in the assay on TK-10 renal it was 18.6 µM. Further, the TGI in the assay on SNB-19 CNS was 4.36 µM; with HOP-62 NSCLC it was 4.65 µM; in the assay with HOP-92 NSCLC, 4.55 µM; with A498 renal, 25.4 µM.

In the case of `CN(C)C(=O)c1cc2cnc(Nc3ccc(-c4csc5c(=S)cc(N6CCOCC6)oc45)cc3)nc2n1C1CCCC1`, in the assay on MDA-MB-468 breast, the GI50 was 0.397 µM and the TGI came to 2.37 µM.

For `CN1C/C=C\CCOc2cccc(c2)-c2ccnc(n2)Nc2cccc(c2)C1`, in the assay with MDA-MB-468 breast, the GI50 is 0.0642 µM and the TGI amounted to 0.289 µM.

In the case of `NS(=O)(=O)c1ccc(N=Nc2c(O)[nH]c3ccc(-c4cnco4)cc23)cc1`, in the assay on MDA-MB-468 breast, the GI50 was above 25 µM and the TGI was above 25 µM.

Consider `CC(C)(C)c1cc(C(C)(C)C)cc(S(=O)(=O)Nc2cc3ccccc3cc2C(=O)NCCN)c1`, for which, in the assay with MDA-MB-468 breast, the GI50 was 1.85 µM and the TGI came to 3.39 µM.

Consider `COc1ccc(Cn2cc3c(c2-c2ccccc2)CC(C)(C)c2cnoc2-3)cc1`, for which, in the assay with MDA-MB-468 breast, the GI50 was 0.542 µM and the TGI is 5.91 µM.

Regarding `C[C@@]12CC=C3c4nc(Nc5cccc(O)c5)sc4CC[C@]3(C)[C@H]1CC[C@]1(C)C(=O)CC[C@@H]21`, in the assay on MDA-MB-468 breast, the GI50 is 2.29 µM and the TGI stood at 5.21 µM.

Take `O=C1OC(C(O)CO)C(=O)C1=O` (stereo not drawn): in the assay on MDA-MB-468 breast, the GI50 is 1810 µM and the TGI stood at 4350 µM.

Take `NC(=O)c1c(NC(=O)c2ccc(C(F)(F)F)cc2)sc2c1CCC(=O)C2`: in the assay with MDA-MB-468 breast, the GI50 was 1.66 µM and the TGI stood at 4.22 µM.

In the case of `COc1cc2ncnc(Nc3ccc(C)c(O)c3)c2cc1OC`, in the assay on MDA-MB-468 breast, the GI50 was 2.39 µM and the TGI came to 8.87 µM.

With `COc1nc2ccccc2cc1-c1nc2c(cnn2-c2ccc(Br)cc2)c(=O)[nH]1`, in the assay on MDA-MB-468 breast, the GI50 is 0.0219 µM and the TGI was 0.616 µM.

Regarding `COc1cc(/C=C/c2cc(/C=C/c3ccc(O)c(OC)c3)n(C(=O)Nc3ccc(F)c(Cl)c3)n2)ccc1O`, in the assay with MDA-MB-468 breast, the GI50 is 0.266 µM and the TGI was 0.829 µM.

Take `COc1cc2c(c(OC)c1OC)-c1ccc(OC)c(=O)cc1[C@@H](NC(=O)c1ccccc1)CC2`: in the assay on MDA-MB-468 breast, the GI50 is 0.0552 µM and the TGI was above 100 µM.

For `COc1ccccc1CNCCCN1C(=O)c2ccc3c4c(ccc(c24)C1=O)C(=O)N(CCCOCCCCOCCCN)C3=O`, in the assay on MDA-MB-468 breast, the GI50 was 0.288 µM and the TGI stood at 1.32 µM.

Regarding `C=C1C(=O)O[C@H]2[C@H]1CC/C(COC(=O)C(=O)c1cn(Cc3ccccc3)c3ccccc13)=C\CC[C@@]1(C)O[C@@H]21`, in the assay with MDA-MB-468 breast, the GI50 is 1.88 µM and the TGI is 3.8 µM.

With `CCCCCCCC/C=C/CCCCCCCC(=O)OC[C@H]1O[C@@H](n2ccc(N)nc2=O)C(F)(F)[C@@H]1O`, in the assay with MDA-MB-468 breast, the GI50 is below 0.0289 µM and the TGI is 3.76 µM.
